These results are taken from article PMC9408991, “Antitumor Effects of a New Retinoate of the Fungal Cytotoxin Illudin M in Brain Tumor Models” (International Journal of Molecular Sciences, 2022).

Read-outs that look alike come from different tables or passages of the source.

For data set [1], the system named is HL60 leukemia cells. Nature of the data set: MTT cell viability assay, HL60 leukemia. Format: cell-based. The settings on record: Homo sapiens, read-out: Inhibitory concentration IC50. The method, then: (§1) 518A2 (Department of Radiotherapy, Medical University of Vienna, Vienna, Austria) melanoma, KB-V1^Vbl (ACC-149) cervix carcinoma, MCF-7^Topo (ACC-115) breast carcinoma, HT29 (ACC-299) colon carcinoma were cultivated in Dulbecco’s Modified Eagle Medium (DMEM) supplemented with 10% fetal bovine serum and 1% antibiotic-antimycotic at 37 °C, 5% CO2, and 95% humidity. To keep MCF-7^Topo and KB-V1^Vbl cells resistant, the maximum-tolerated doses of topotecan or vinblastine were added to the cell culture medium 24 h after every passage. The human HL60 leukemia cells were obtained from the German National Resource Center for Biological Material (DSMZ), Braunschweig. Neuroectodermal stem cells NE-4C (ATCC No. CRL-2925), primary mouse astrocytes, rat glioma C6 (ATCC No. CCL-107) and human glioma U87 (ATCC No. HTB-14) were used.
(§2) Non-GBM cells (5 × 10^4 cells/mL, 100 µL/well) were grown in 96-well plates for 24 h. […] After the addition of 12.5 µL of a 0.5% MTT solution in PBS, the cells were incubated for 3 h at 37 °C so that the water-soluble MTT could be converted to formazan crystals. Then, the plates were centrifuged (300× g, 5 min, 4 °C), the medium withdrawn, and the formazan dissolved in 25 µL of DMSO containing 10% sodium dodecylsulfate (SDS) and 0.6% acetic acid for at least 2 h at 37 °C. In the case of the HL60 cells, after 2 h, the precipitate of formazan crystals was redissolved in a 10% solution of SDS in DMSO containing 0.6% acetic acid.
(In general: Formazan colour is commonly taken as a measure of viable cells.)

The subject of data set [2] is HT-29 colon carcinoma cells. Nature of the data set: MTT cell viability assay, HT-29 colon carcinoma. Format: cell-based. The settings on record: Homo sapiens, read-out: Inhibitory concentration IC50. The method, then: as §1, §2
The subject of data set [3] is NE-4C neuroectodermal stem cells. Nature of the data set: MTT cell viability assay, NE-4C neuroectodermal stem cells. It counts as cell-based. The settings on record: Mus musculus, read-out: Inhibitory concentration IC50. The method, then: NE-4C cells derived from the anterior brain vesicles of p53-deficient 9-day-old mouse embryos were maintained in Minimum Essential Medium (MEM; Sigma Aldrich, Taufkirchen, Germany) supplemented with 5% fetal calf serum (FCS; Invitrogen-Gibco, Carlsbad, CA, USA), 4 mM glutamine (Sigma-Aldrich, Taufkirchen, Germany) and 40 ug/mL gentamycin (Chinoin, Budapest, Hungary). For maintenance, subconfluent cultures were regularly split by trypsinization (0.05 w/v% trypsin in PBS) into poly-L-lysine-coated Petri dishes. Primary astrocytes were isolated from whole brains of neonatal (P0-P3) mice, as described earlier. In brief, meninges were removed, and the tissue pieces were subjected to enzymatic dissociation, using 0.05% w/v trypsin and 0.05% w/v DNase for 10 min at room temperature. The cells were plated onto poly-L-lysine coated plastic surfaces and grown in MEM supplemented with 10% fetal calf serum, 4 mM glutamine and 40 ug/mL gentamycin. Primary neuronal cultures were prepared from embryonic (E15–E16) mouse (CD1) forebrains, as described earlier. In brief, cell suspensions were prepared by mechanical dissociation over a nylon mesh with a pore diameter of 40–42 μm. The cells were seeded at 10^5 cells/cm^2 density onto PLL-coated surfaces. The cultures were maintained in MEM supplemented with 5% FCS, 4 mM glutamine, 40 µg/mL gentamicin and 2.5 μg/mL amphotericin B (Sigma). In co-culture experiments, U87 glioma cells were seeded onto established neuronal cultures at DIV3 in a 25,000 cell/cm^2 density.
as §2

In data set [4] the test system is MZ-54 glioblastoma cells. Nature of the data set: Annexin V/PI flow cytometry. Format: cell-based, human. The following applies: MZ-54 cells. The method, then:
U251 und Mz54 glioblastoma cells (6 × 10^5 cells/mL, 0.5 mL/well) were seeded in 24-well plates. The next day, the cells were treated with 1, 2 or vehicle (DMSO) for 48 h. Prior to the measurement, the cells were harvested and stained using Annexin-V-APC (BD Biosciences, Heidelberg, Germany) and propidium iodide (PI, 0.05 mg/mL, Sigma-Aldrich, Taufkirchen, Germany). Cells were analyzed with BD Accuri C6 flow-cytometer (BD Biosciences), and data processing was performed using BD Accuri C6 software (BD Biosciences).
Figure 7 (A–D). Annexin V/PI flow cytometry of MZ–54 cells upon treatment with 1 or 2, mean + SEM; Brown–Forsythe ANOVA test with Dunnett’s T3 multiple comparison test (compared with DMSO control); * < 0.05; ** < 0.01; *** < 0.001; **** < 0.0001.
A general note: In flow cytometry, cells or beads pass a laser one at a time.

Data set [5] has as its system NCH644^GFP+ glioma stem-like cells. Nature of the data set: Ex vivo tumor growth assay on adult organotypic brain slice cultures. Format: cell-based. The source says: For further investigation of drug efficacy and selectivity, an ex vivo tumor growth assay employing organotypic brain slice cultures of adult murine brains were used. For this purpose, GFP-expressing NCH644 (NCH644^GFP+) glioma stem-like cells were transplanted onto these slices, and after 1 day, the treatment was started and renewed three times per week, similar to our previous studies. These cultures are suitable ex vivo models, which simulate original brain architecture and the presence of vessels, including angiogenesis and microvascular proliferation as well as specific homing of GBM cells toward those vessels, while requiring much fewer laboratory animals when compared with common in vivo animal drug tests.
Adult organotypic brain slice culture was carried out as described previously. Briefly, the brains from adult C57BL/6 J (Envigo, Horst, The Netherlands) were dissected, and dura mater was removed after the mice were euthanized. Subsequently, mouse brains were placed in warm (35–40 °C) 2% low-melting agarose (Carl Roth, Karlsruhe, Germany) and cut on a Vibratome VT1000 (Leica, Wetzlar, Germany) in 150 µm thick sections. These sections were placed on Milli-cell culture inserts (Merck KGaA, Darmstadt, Germany) and cultured in 6-well plates using FCS-free medium consisting of DMEM/F12 supplied with 1× B27 and 1× N2 supplement and 100 U/mL penicillin and 100 µg/mL streptomycin (all from Gibco, Darmstadt, Germany). One day later, multiple spheres were placed on the mouse brain slices. Adequate spheres were prepared by seeding 275.000 NCH644^GFP+ cells in a total volume of 5 mL in a T25 flask. One day after sphere transplantation, pictures were taken (day 0), and the treatment was started, which was refreshed 3 times per week. Tumor growth was evaluated using FIJI, after which pictures were taken regularly with a Nikon SMZ25 stereomicroscope equipped with a P2-SHR Plan Apo 2 × objective operated by NIS elements software. As the tumor size was normalized to the size on day 0, growth curves were created.

In data set [6] the test system is MCF-7^+Topo breast carcinoma cells. Nature of the data set: MTT cell viability assay, MCF-7+Topo breast carcinoma. It counts as cell-based. The following applies: Homo sapiens, MCF7/Topo, read-out: Inhibitory concentration IC50. The method, then: as §1, §2
Setting [7] is: 5 µM, treatment renewed three times per week.

In the case of `CC1=C2C(=CC(C)(C)[C@@H]2O)C(=O)[C@](C)(O)C12CC2` [Compound 1, illudin M], the IC50 in data set [1] (HL-60, HL60, 24 h exposure) came out at 7 ± 2 nM; in data set [1] (HL-60, HL60, 48 h exposure) it was 1 nM; in data set [2] (HT-29, 24 h exposure), 1500 ± 600 nM; in data set [2] (HT-29, 48 h exposure) it was 60 ± 10 nM; in data set [3] (24 h exposure) it was 400 ± 100 nM; in data set [3] (48 h exposure), 50 ± 20 nM. Further, the IC50 came to 350 ± 130 nM in data set [6] (24 h exposure) and 50 ± 10 nM in data set [6] (48 h exposure). Moreover, the “cell death (Annexin V/PI)” value in data set [4] is “dose- and time-dependent increase in cell death”. Moreover, the “antitumor activity (tumor growth normalized to day 0)” value in data set [5] (setting [7]) is “showed antitumor activity”.
Regarding `CC1=C(/C=C/C(C)=C/C=C/C(C)=C/C(=O)O[C@@H]2C3=C(C)C4(CC4)[C@@](C)(O)C(=O)C3=CC2(C)C)C(C)(C)CCC1` [Compound 2, illudin M retinoate], the IC50 was 6800 ± 2800 nM in data set [1] (HL-60, HL60, 24 h exposure); 4500 ± 1100 nM in data set [1] (HL-60, HL60, 48 h exposure); 38000 ± 4000 nM in data set [2] (HT-29, 24 h exposure); 4000 ± 1300 nM in data set [2] (HT-29, 48 h exposure); 7000 ± 3200 nM in data set [3] (24 h exposure); 2000 ± 1200 nM in data set [3] (48 h exposure). Moreover, the IC50 is 2500 ± 600 nM in data set [6] (24 h exposure) and 80 ± 10 nM in data set [6] (48 h exposure). In data set [4], the “cell death (Annexin V/PI)” value was “dose- and time-dependent increase in cell death”. For the same molecule, the “antitumor activity (tumor growth normalized to day 0)” value in data set [5] (setting [7]) is reported as “showed antitumor activity”; in data set [5] (0.1 and 0.5 µM), “significantly reduced”. Also, in data set [5] (organotypic brain slices), the “toxicity in the tumor-free regions of the brain slices” value is “no signs of toxicity”.
